The record followed here is patent US10329294B2, “Pyrazolopyrimidine inhibitors of IRAK4 activity” (MERCK SHARP & DOHME CORP., priority 2015, dated 2019).

Structures can show the parent of a compound that is named as a salt.

By IC50 is commonly meant the concentration at which inhibition is half-maximal.

The target in the experiment is IRAK4 (Homo sapiens (Human), UniProt Q9NWZ3). In words: IRAK4 Kinase Assay. The settings on record: IMAP fluorescence polarization, 0.5 nM GST tagged IRAK4, 100 μM ATP, 30 minutes at 25° C.; read-out: IRAK4 IC50. The class given is biochemical.
Sequence of IRAK4 (Q9NWZ3 whole entry): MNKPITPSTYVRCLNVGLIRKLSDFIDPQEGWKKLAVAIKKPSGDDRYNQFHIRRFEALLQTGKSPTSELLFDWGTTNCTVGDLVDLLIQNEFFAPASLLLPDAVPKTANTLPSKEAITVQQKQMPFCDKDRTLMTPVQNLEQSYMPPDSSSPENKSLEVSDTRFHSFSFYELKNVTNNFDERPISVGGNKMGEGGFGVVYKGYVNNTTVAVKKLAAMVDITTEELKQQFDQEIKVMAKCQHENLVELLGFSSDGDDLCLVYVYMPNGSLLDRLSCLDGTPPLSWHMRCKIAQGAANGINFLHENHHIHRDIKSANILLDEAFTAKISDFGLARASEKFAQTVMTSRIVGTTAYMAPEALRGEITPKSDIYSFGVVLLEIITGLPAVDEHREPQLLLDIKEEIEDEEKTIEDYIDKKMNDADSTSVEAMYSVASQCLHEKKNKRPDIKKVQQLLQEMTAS

Take `CC(C)(C)n1cc(NC(=O)c2cnn3ccc(N4CC5CCC4CN5)nc23)c(C(F)(F)F)n1` (stereo not shown) [Example 50, N-[1-tert-butyl-3-(trifluoromethyl)-1H-pyrazol-4-yl]-5-(2,5-diazabicyclo[2.2.2]oct-2-yl)pyrazolo[1,5-a]pyrimidine-3-carboxamide trifluoroacetate]: the IC50 was 0.09 µM. As to `Cn1cc(NC(=O)c2cnn3ccc(N4CC[C@H]5CC[C@@H](C4)N5)nc23)c(C(F)(F)F)n1` (single isomer, unassigned) [Example 89, 5-[(1R,6S)- or (1S,6R)-3,9-diazabicyclo[4.2.1]non-3-yl]-N-[1-methyl-3-(trifluoromethyl)-1H-pyrazol-4-yl]pyrazolo[1,5-a]pyrimidine-3-carboxamide trifluoroacetate], the IC50 was found to be 0.27 µM. As for `N[C@H]1CCCC[C@H]1Nc1ccn2ncc(C(=O)Nc3ccoc3C(F)(F)F)c2n1` [Example 45, 5-{[(1R,2S)-2-aminocyclohexyl]amino}-N-[2-(trifluoromethyl)furan-3-yl]pyrazolo[1,5-a]pyrimidine-3-carboxamide trifluoroacetate], the IC50 was 0.008 µM.

For `N[C@H]1CCCC[C@H]1Nc1ccn2ncc(C(=O)Nc3ccccc3C(F)(F)F)c2n1` [Example 38, 5-{[(1R,2S)-2-aminocyclohexyl]amino}-N-[2-(trifluoromethyl)phenyl] pyrazolo[1,5-a]pyrimidine-3-carboxamide trifluoroacetate], the IC50 was found to be 0.016 µM. The same measure for `O=C(Nc1ccsc1Br)c1cnn2ccc(N3CC4CCC3CN4)nc12` (stereo not shown) [Example 142, N-(2-bromothiophen-3-yl)-5-(2,5-diazabicyclo[2.2.2]oct-2-yl)pyrazolo[1,5-a]pyrimidine-3-carboxamide trifluoroacetate]: 0.524 µM. The figure for `O=C(Nc1cn(CC(F)(F)F)nc1C(F)(F)F)c1cnn2ccc(N[C@@H]3CCCC[C@@H]3O)nc12` [Example 57, 5-{[(1R,2S)-2-hydroxycyclohexyl]amino}-N-[1-(2,2,2-trifluoroethyl)-3-(trifluoromethyl)-1H-pyrazol-4-yl]pyrazolo[1,5-a]pyrimidine-3-carboxamide trifluoroacetate] is 0.32 µM; for `N[C@H]1CCCC[C@H]1Nc1ccn2ncc(C(=O)Nc3cn(CC(F)(F)F)nc3C(F)(F)F)c2n1` [Example 295, 5-{[(1R,2S)-2-aminocyclohexyl]amino}-N-[1-(2,2,2-trifluoroethyl)-3-(trifluoromethyl)-1H-pyrazol-4-yl]pyrazolo[1,5-a]pyrimidine-3-carboxamide trifluoroacetate] it is 0.001 µM.

For `Cn1cc(NC(=O)c2cnn3ccc(N4CCC(F)(F)[C@@H](N)C4)nc23)c(C(F)F)n1` (single isomer, unassigned) [Example 189, 5-[(4R)- or (4S)-(3-amino-4,4-difluoropiperidin-1-yl)-N-[3-(difluoromethyl)-1-methyl-1H-pyrazol-4-yl]pyrazolo[1,5-a]pyrimidine-3-carboxamide trifluoroacetate], the IC50 was found to be 0.002 µM. Take `Cn1cc(NC(=O)c2cnn3ccc(N[C@@H]4CNCC(F)(F)C4)nc23)c(C(F)F)n1` (single isomer, unassigned) [Example 228, N-[3-(difluoromethyl)-1-methyl-1H-pyrazol-4-yl]-5-{[(3S)- or (3R)-5,5-difluoropiperidin-3-yl]amino}pyrazolo[1,5-a]pyrimidine-3-carboxamide]: the IC50 is 0.059 µM. For the molecule `Cn1cc(NC(=O)c2cnn3ccc(N4CCCNCC4)nc23)c(C#N)n1` [Example 125, N-(3-cyano-1-methyl-1H-pyrazol-4-yl)-5-(1,4-diazepan-1-yl)pyrazolo[1,5-a]pyrimidine-3-carboxamide trifluoroacetate], the IC50 was found to be 0.119 µM. Regarding `Cn1cc(NC(=O)c2cnn3ccc(N[C@H]4CCCCNC4)nc23)c(C(F)(F)F)n1` (single isomer, unassigned) [Example 159, 5-[(3S)- or (3R)-azepan-3-ylamino]-N-[1-methyl-3-(trifluoromethyl)-1H-pyrazol-4-yl]pyrazolo[1,5-a]pyrimidine-3-carboxamide trifluoroacetate], the IC50 came out at 0.018 µM. `Cn1cc(NC(=O)c2cnn3ccc(N[C@H]4CNC[C@@H](F)C4)nc23)c(C(F)F)n1` [Example 258, N-[3-(difluoromethyl)-1-methyl-1H-pyrazol-4-yl]-5-{[(3R,5S)-5-fluoropiperidin-3-yl]amino}pyrazolo[1,5-a]pyrimidine-3-carboxamide hydrochloride]: the 50% inhibitory concentration (IC50) was 0.0005 µM. Take `Cn1cc(NC(=O)c2cnn3ccc(N4CCC[C@H](O)C4)nc23)c(C(F)F)n1` [Example 26, N-[3-(difluoromethyl)-1-methyl-1H-pyrazol-4-yl]-5-[(3S)-3-hydroxypiperidin-1-yl]pyrazolo[1,5-a]pyrimidine-3-carboxamide]: the IC50 was 0.0005 µM. In the case of `Cn1cc(NC(=O)c2cnn3ccc(N4CCNCC4CC(F)(F)F)nc23)c(C(F)(F)F)n1` (stereo not shown) [Example 41, N-[1-methyl-3-(trifluoromethyl)-1H-pyrazol-4-yl]-5-[2-(2,2,2-trifluoroethyl)piperazin-1-yl]pyrazolo[1,5-a]pyrimidine-3-carboxamide trifluoroacetate], the IC50 is 0.106 µM. The same measure for `N[C@@H]1[C@H](Nc2ccn3ncc(C(=O)Nc4ccccc4Br)c3n2)CCCC1(F)F` [Example 108, 5-{[(1R,2R)-2-amino-3,3-difluorocyclohexyl]amino}-N-(2-bromophenyl)pyrazolo[1,5-a]pyrimidine-3-carboxamide trifluoroacetate]: 1.89 µM. For the molecule `Cn1cc(NC(=O)c2cnn3ccc(N4C[C@H]5CC[C@@H]4CN5)nc23)c(Cl)n1` (single isomer, unassigned) [Example 152, N-(3-chloro-1-methyl-1H-pyrazol-4-yl)-5-[(1S,4S)- or (1R,4R)-(2,5-diazabicyclo[2.2.2]oct-2-yl]pyrazolo[1,5-a]pyrimidine-3-carboxamide trifluoroacetate], the IC50 came out at 0.028 µM.

For the molecule `Cn1cc(NC(=O)c2cnn3ccc(N[C@H]4CNC[C@H](F)C4)nc23)c(C(F)F)n1` [Example 261, N-[3-(difluoromethyl)-1-methyl-1H-pyrazol-4-yl]-5-{[(3R,5R)-5-fluoropiperidin-3-yl]amino}pyrazolo[1,5-a]pyrimidine-3-carboxamide trifluoroacetate], the IC50 amounted to 0.0005 µM. Turning to `Cn1cc(NC(=O)c2cnn3ccc(N4C[C@@H](N)C[C@@H](F)C4)nc23)c(C(F)F)n1` [Example 249, 5-[(3S,5R)-3-amino-5-fluoropiperidin-1-yl]-N-[3-(difluoromethyl)-1-methyl-1H-pyrazol-4-yl]pyrazolo[1,5-a]pyrimidine-3-carboxamide trifluoroacetate], the IC50 came to 0.001 µM.

For the molecule `Cn1cc(NC(=O)c2cnn3ccc(NC4CCCCNC4)nc23)c(C(F)(F)F)n1` (stereo not shown) [Example 12, 5-(azepan-3-ylamino)-N-[1-methyl-3-(trifluoromethyl)-1H-pyrazol-4-yl]pyrazolo[1,5-a]pyrimidine-3-carboxamide hydrochloride], the IC50 worked out at 0.006 µM. In the case of `Cn1cc(NC(=O)c2cnn3ccc(N4C5CCC4CNC5)nc23)c(C(F)(F)F)n1` [Example 226, 5-(3,8-diazabicyclo[3.2.1]oct-8-yl)-N-[1-methyl-3-(trifluoromethyl)-1H-pyrazol-4-yl]pyrazolo[1,5-a]pyrimidine-3-carboxamide trifluoroacetate], the IC50 is 0.002 µM.

With `N#Cc1ccccc1NC(=O)c1cnn2ccc(N3CCCNCC3)nc12` [Example 273, N-(2-cyanophenyl)-5-(1,4-diazepan-1-yl)pyrazolo[1,5-a]pyrimidine-3-carboxamide trifluoroacetate], the IC50 was 1.36 µM.

For `O=C(Nc1ccccc1I)c1cnn2ccc(N[C@@H]3CCCC[C@@H]3O)nc12` [Example 101, 5-{[(1R,2S)-2-hydroxycyclohexyl]amino}-N-(2-iodophenyl)pyrazolo[1,5-a]pyrimidine-3-carboxamide], the IC50 is 7.65 µM. For `Cn1cc(NC(=O)c2cnn3ccc(NC4CNCCC4F)nc23)c(C(F)F)n1` (single isomer, unassigned) [Example 234, N-[3-(difluoromethyl)-1-methyl-1H-pyrazol-4-yl]-5-[(3R or S, 4R or S-4-fluoropiperidin-3-yl)amino]pyrazolo[1,5-a]pyrimidine-3-carboxamide], the IC50 is 0.005 µM. `Cc1nc(-c2nn(C)cc2NC(=O)c2cnn3ccc(N[C@@H]4CCCC[C@@H]4N)nc23)no1` [Example 288, 5-{[(1R,2S)-2-aminocyclohexyl]amino}-N-[1-methyl-3-(5-methyl-1,2,4-oxadiazol-3-yl)-1H-pyrazol-4-yl]pyrazolo[1,5-a]pyrimidine-3-carboxamide]: the IC50 was determined as 0.01 µM. In the case of `N[C@@H]1[C@H](Nc2ccn3ncc(C(=O)Nc4cn(CC(F)F)nc4C(F)(F)F)c3n2)CCCC1(F)F` [Example 66, 5-{[(1R,2R)-2-amino-3,3-difluorocyclohexyl]amino}-N-[1-(2,2-difluoroethyl)-3-(trifluoromethyl)-1H-pyrazol-4-yl]pyrazolo[1,5-a]pyrimidine-3-carboxamide trifluoroacetate], the IC50 is 0.244 µM.

Take `Cn1cc(NC(=O)c2cnn3ccc(N4CC[C@@H](F)[C@@H](N)C4)nc23)c(C(F)F)n1` (single isomer, unassigned) [Example 178, 5-[(3S,4R)- or (3R,4S)-3-amino-4-fluoropiperidin-1-yl]-N-[3-(difluoromethyl)-1-methyl-1H-pyrazol-4-yl]pyrazolo[1,5-a]pyrimidine-3-carboxamide trifluoroacetate]: the half-inhibitory concentration (IC50) came out at 0.004 µM. Turning to `N#Cc1cscc1NC(=O)c1cnn2ccc(N[C@@H]3CCCC[C@@H]3N)nc12` [Example 39, 5-{[(1R,2S)-2-aminocyclohexyl]amino}-N-(4-cyanothiophen-3-yl)pyrazolo[1,5-a]pyrimidine-3-carboxamide trifluoroacetate], the IC50 was 0.002 µM. The figure for `Cn1cc(NC(=O)c2cnn3ccc(NC4CCCCNC4)nc23)c(C(F)F)n1` (stereo not shown) [Example 99, 5-(azepan-3-ylamino)-N-[3-(difluoromethyl)-1-methyl-1H-pyrazol-4-yl]pyrazolo[1,5-a]pyrimidine-3-carboxamide] is 0.003 µM.
